Laboratory results from paper doi:10.1101/2025.04.14.25325787v4 (medrxiv, 2025).

Biological target: EGFR kinase domain (Homo sapiens, UniProt P00533)
Assay: SPR
Type: binding

Chain of EGFR kinase domain (P00533 704-1016): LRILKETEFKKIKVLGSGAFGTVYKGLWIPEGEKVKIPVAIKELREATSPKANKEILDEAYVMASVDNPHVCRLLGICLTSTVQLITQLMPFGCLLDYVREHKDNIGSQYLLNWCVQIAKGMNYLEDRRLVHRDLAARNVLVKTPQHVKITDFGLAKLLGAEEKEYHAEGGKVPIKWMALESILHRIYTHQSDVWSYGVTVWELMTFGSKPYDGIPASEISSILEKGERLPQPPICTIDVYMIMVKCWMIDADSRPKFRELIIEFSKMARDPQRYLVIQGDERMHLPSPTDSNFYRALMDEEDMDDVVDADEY

Kd: 19.6 µM
SMILES: COc1ccc(CCn2c(=O)c3cc4c(cc3c3ccccc32)OCO4)cc1 [Z5, ZYH005]
